Results: patent US20220081433A1, “CYCLIC SULFAMIDE COMPOUNDS FOR TREATMENT OF HBV” (Assembly Biosciences, Inc., priority 2018, published 2022)

Tested on: HBV
Test: Activity of test compounds on viral production from HepAD38 cells (viral load by qPCR of HBV core sequence)
Assay type: cell-based
Conditions: Hepatitis B virus, 120 h, 5 days, supernatant HBV DNA by qPCR vs DMSO control, read-out: viral load lowering EC50 (Activity)
Procedure: Assay Measuring Activity of Test Compounds on Viral Production from HepAD38 Cells
HepAD38 cells grown in a T-150 flask (Corning, cat#: 430825) with Growth Medium (DMEM/F12 (1:1) (Hyclone, cat#: SH30023.02), 1× Pen/Strep (Invitrogen, cat#: 15140-122), 10% FBS (Tissue Culture Biologics, cat#: 101), 250 μg/mL G418 (Alfa Aesar, cat#: J62671), 1 μg/mL Tetracycline (Teknova, cat#: T3320)) were detached with 0.25% trypsin-EDTA (Invitrogen, cat#: 25200-056). Tetracycline-free treatment medium (15 mL DMEM/F12 (1:1) 1×Pen/step, with 2% FBS, Tet-system approved (Clontech, cat#: 631106) were then added to mix, transferred into a 50 ml conical tube (Falcon, cat#: 21008-918) and spun at 1300 rpm for 5 min. Pelleted cells were then re-suspended/washed with 50 mL of 1×DPBS (Invitrogen, cat#: 14190-136) 2 times and 50 mL treatment medium twice. HepAD38 cells were then re-suspended with 10 mL of treatment medium, syringed and counted. Wells of 96-well clear bottom TC plate (Corning, cat#: 3904) were seeded at 50,000 cells/well in 180 μL of treatment medium, and 20 μL of either 10% DMSO (Sigma, cat#: D4540) as controls or a 10× solution of test compounds in 10% DMSO in treatment media was added for a final compound concentration starting at 10 μM, and plates were incubated in 5% CO2 incubator at 37° C. for 5 days.
Subsequently viral load production was assayed by quantitative PCR (qPCR) of the HBV core sequence. PCR reaction mixture containing forward primers HBV-f 5′-CTGTGCCTTGGGTGGCTTT-3′ (IDT DNA), Reverse primers HBV-r 5′-[…]-3′ (IDT DNA), Fluorescent TaqMan™ Probes HBV-probe 5′-FAM/AGCTCCAAA/ZEN/[…]/3IABkFQ-3′ (IDT DNA), 10 μL/well of PerfeCTa® qPCR ToughMix® (Quanta Biosciences, Cat#: 95114-05K), and 6 μL/well of DEPC water (Alfa Aesar, cat#: J62087) was prepared. Four μL of supernatant was added to 16 μL of the reaction mixture in a qPCR plate (Applied Biosytems, Cat#: 4309849), sealed with a film (Applied Biosystems, Cat#: 4311971), centrifuged for a few seconds, and subsequently run on an Applied Biosystems VIIA7. The PCR mixture was incubated at 45° C. for 5 min, then 95° C. for 10 min, followed by 40 cycles of 10 seconds at 95° C. and 20 seconds at 60° C. Viral load was quantified against known HBV DNA standards by using ViiA™ 7 Software. Viral load in the supernatant from wells with treated cells were compared against viral load in supernatant from DMSO control wells (≥ 3 per plate). Cell viability assay was performed with CellTiter-Glo Luminescent Cell Viability Assay (Promega, cat#: G7573) with modification. Mixed appropriate amount of CellTiter-Glo (CTG) 1×DPBS in a 1:1 ratio, added 100 uL of the mixture to each well followed completely removal of all supernatant in each well without touching cell surface. Incubated the plate at room temperature for 10 min on an orbital shaker, and then read the plate with a plate reader (TECAN M1000 or Envision). EC50 or CC50 values were calculated through curve-fitting of the four-parameter nonlinear-logistic-regression model (GraphPad Prism or Dotmatics). CC50 values were all >10 μM.

SMILES | EC50 [µM]
CN1[C@@H](C(=O)Nc2ccc(F)c(Cl)c2)C[C@@H](c2cccc(-c3ccccc3)c2)NS1(=O)=O (single isomer, unassigned) [2-Isomer II] | 5 to 10
CN1[C@H](C(=O)Nc2ccc(F)c(Cl)c2)C[C@H](c2cccc(-c3ccccc3)c2)NS1(=O)=O (single isomer, unassigned) [2-Isomer I] | < 1
Cc1cc(-c2cccc([C@@H]3C[C@H](C(=O)Nc4ccc(F)c(Cl)c4)N(C)S(=O)(=O)N3)c2)ccn1 (single isomer, unassigned) [3-Isomer II] | 5 to 10
Cc1cc(-c2cccc([C@H]3C[C@@H](C(=O)Nc4ccc(F)c(Cl)c4)N(C)S(=O)(=O)N3)c2)ccn1 (single isomer, unassigned) [3-Isomer I] | < 1
CN1[C@@H](C(=O)Nc2ccc(F)c(Cl)c2)C[C@@H](c2cccc(-c3ccc(C#N)cc3)c2)NS1(=O)=O (single isomer, unassigned) [4-Isomer II] | 1 to 5
CN1[C@H](C(=O)Nc2ccc(F)c(Cl)c2)C[C@H](c2cccc(-c3ccc(C#N)cc3)c2)NS1(=O)=O (single isomer, unassigned) [4-Isomer I] | < 1
CN1[C@@H](C(=O)Nc2ccc(F)c(Cl)c2)C[C@@H](c2cccc(-c3ccc(F)cc3Cl)c2)NS1(=O)=O (single isomer, unassigned) [5-Isomer II] | 1 to 5
CN1[C@H](C(=O)Nc2ccc(F)c(Cl)c2)C[C@H](c2cccc(-c3ccc(F)cc3Cl)c2)NS1(=O)=O (single isomer, unassigned) [5-Isomer I] | < 1
Cc1ccc(-c2cccc([C@@H]3C[C@H](C(=O)Nc4ccc(F)c(Cl)c4)N(C)S(=O)(=O)N3)c2)c(Cl)c1 (single isomer, unassigned) [6-Isomer II] | 1 to 5
CC(C)c1ccc(-c2cccc([C@@H]3C[C@H](C(=O)Nc4ccc(F)c(Cl)c4)N(C)S(=O)(=O)N3)c2)cc1 (single isomer, unassigned) [7-Isomer II] | 1 to 5
CC(C)c1ccc(-c2cccc([C@H]3C[C@@H](C(=O)Nc4ccc(F)c(Cl)c4)N(C)S(=O)(=O)N3)c2)cc1 (single isomer, unassigned) [7-Isomer I] | < 1
CN1[C@@H](C(=O)Nc2ccc(F)c(Cl)c2)C[C@@H](c2cccc(-c3cccc(C(F)(F)F)c3)c2)NS1(=O)=O (single isomer, unassigned) [8-Isomer II] | 5 to 10
CN1[C@H](C(=O)Nc2ccc(F)c(Cl)c2)C[C@H](c2cccc(-c3cccc(C(F)(F)F)c3)c2)NS1(=O)=O (single isomer, unassigned) [8-Isomer I] | < 1
CN1[C@@H](C(=O)Nc2ccc(F)c(Cl)c2)C[C@@H](c2cccc(-c3ccc(Cl)c(Cl)c3)c2)NS1(=O)=O (single isomer, unassigned) [9-Isomer II] | 5 to 10
CN1[C@H](C(=O)Nc2ccc(F)c(Cl)c2)C[C@H](c2cccc(-c3ccc(Cl)c(Cl)c3)c2)NS1(=O)=O (single isomer, unassigned) [9-Isomer I] | < 1
Cc1cc(-c2cccc([C@@H]3C[C@H](C(=O)Nc4ccc(F)c(Cl)c4)N(C)S(=O)(=O)N3)c2)ccc1F (single isomer, unassigned) [10 Isomer II] | 5 to 10
Cc1cc(-c2cccc([C@H]3C[C@@H](C(=O)Nc4ccc(F)c(Cl)c4)N(C)S(=O)(=O)N3)c2)ccc1F (single isomer, unassigned) [10-Isomer I] | < 1

SMILES | EC50 [µM]
CN1[C@@H](C(=O)Nc2ccc(F)c(Cl)c2)C[C@@H](c2cccc(-c3cccc(C(=O)O)c3)c2)NS1(=O)=O (single isomer, unassigned) [19-Isomer II] | 5 to 10
CN1[C@H](C(=O)Nc2ccc(F)c(Cl)c2)C[C@H](c2cccc(-c3cccc(C(=O)O)c3)c2)NS1(=O)=O (single isomer, unassigned) [19-Isomer I] | < 1
CN1[C@@H](C(=O)Nc2ccc(F)c(Cl)c2)C[C@@H](c2cccc(N3CCOCC3)c2)NS1(=O)=O (single isomer, unassigned) [24-Isomer II] | 5 to 10
CN1[C@H](C(=O)Nc2ccc(F)c(Cl)c2)C[C@H](c2cccc(N3CCOCC3)c2)NS1(=O)=O (single isomer, unassigned) [24-Isomer I] | < 1
CN1CCN(c2cccc([C@@H]3C[C@H](C(=O)Nc4ccc(F)c(Cl)c4)N(C)S(=O)(=O)N3)c2)CC1 (single isomer, unassigned) [25-Isomer II] | 1 to 5
CN1CCN(c2cccc([C@H]3C[C@@H](C(=O)Nc4ccc(F)c(Cl)c4)N(C)S(=O)(=O)N3)c2)CC1 (single isomer, unassigned) [25-Isomer I] | < 1
CN1[C@@H](C(=O)Nc2ccc(F)c(Cl)c2)C[C@@H](c2cccc(-n3ccnc3)c2)NS1(=O)=O (single isomer, unassigned) [27-Isomer II] | 5 to 10
CN1[C@H](C(=O)Nc2ccc(F)c(Cl)c2)C[C@H](c2cccc(-n3ccnc3)c2)NS1(=O)=O (single isomer, unassigned) [27-Isomer I] | < 1
CN1C(C(=O)Nc2ccc(F)c(Cl)c2)CC(c2cccc(-c3ccccc3)c2)NS1(=O)=O (stereo not drawn) [Example 2, 5-([1,1-Biphenyl]-3-yl)-N-(3-chloro-4-fluorophenyl)-2-methyl-1,2,6-thiadiazinane-3-carboxamide 1,1-dioxide] | < 1
Cc1cc(-c2cccc(C3CC(C(=O)Nc4ccc(F)c(Cl)c4)N(C)S(=O)(=O)N3)c2)ccn1 (stereo not drawn) [Example 3, N-(3-Chloro-4-fluorophenyl)-2-methyl-5-(3-(2-methylpyridin-4-yl)phenyl)-1,2,6-thiadiazinane-3-carboxamide 1,1-dioxide] | < 1
CN1C(C(=O)Nc2ccc(F)c(Cl)c2)CC(c2cccc(-c3ccc(C#N)cc3)c2)NS1(=O)=O (stereo not drawn) [Example 4, N-(3-Chloro-4-fluorophenyl)-5-(4′-cyano-[1,1′-biphenyl]-3-yl)-2-methyl-1,2,6-thiadiazinane-3-carboxamide 1,1-dioxide] | < 1
CN1C(C(=O)Nc2ccc(F)c(Cl)c2)CC(c2cccc(-c3ccc(F)cc3Cl)c2)NS1(=O)=O (stereo not drawn) [Example 5, 5-(2′-Chloro-4′-fluoro-[1,1′-biphenyl]-3-yl)-N-(3-Chloro-4-fluorophenyl)-2-methyl-1,2,6-thiadiazinane-3-carboxamide 1,1-dioxide] | < 1
Cc1ccc(-c2cccc(C3CC(C(=O)Nc4ccc(F)c(Cl)c4)N(C)S(=O)(=O)N3)c2)c(Cl)c1 (stereo not drawn) [Example 6, 5-(2′-Chloro-4′-methyl-[1,1′-biphenyl]-3-yl)-N-(3-Chloro-4-fluorophenyl)-2-methyl-1,2,6-thiadiazinane-3-carboxamide 1,1-dioxide] | < 1
CC(C)c1ccc(-c2cccc(C3CC(C(=O)Nc4ccc(F)c(Cl)c4)N(C)S(=O)(=O)N3)c2)cc1 (stereo not drawn) [Example 7, N-(3-Chloro-4-fluorophenyl)-5-(4′-isopropyl-[1,1′-biphenyl]-3-yl)-2-methyl-1,2,6-thiadiazinane-3-carboxamide 1,1-dioxide] | < 1
CN1C(C(=O)Nc2ccc(F)c(Cl)c2)CC(c2cccc(-c3cccc(C(F)(F)F)c3)c2)NS1(=O)=O (stereo not drawn) [Example 8, N-(3-Chloro-4-fluorophenyl)-2-methyl-5-(3′-(trifluoromethyl)-[1,1′-biphenyl]-3-yl)-1,2,6-thiadiazinane-3-carboxamide 1,1-dioxide] | < 1
CN1C(C(=O)Nc2ccc(F)c(Cl)c2)CC(c2cccc(-c3ccc(Cl)c(Cl)c3)c2)NS1(=O)=O (stereo not drawn) [Example 9, N-(3-Chloro-4-fluorophenyl)-5-(3′,4′-dichloro-[1,1′-biphenyl]-3-yl)-2-methyl-1,2,6-thiadiazinane-3-carboxamide 1,1-dioxide] | 1 to 5
